Measured values taken from paper PMC4723341, “Ribonuclease H/DNA Polymerase HIV-1 Reverse Transcriptase Dual Inhibitor: Mechanistic Studies on the Allosteric Mode of Action of Isatin-Based Compound RMNC6” (PLoS ONE, 2016).
Where “and” joins values, the source holds several entries; their conditions need not be identical. Equal entries are not always repeated. Where two headings read alike, the source gives them in different places.

Tests used:
[1] = target: T1, HIV-1 RT-associated RNase H activity, Y181C RT (Human immunodeficiency virus type 1 group M subtype B, UniProt P04585, Y768C); assay: RNase H activity assay, Y181C RT; assay type: biochemical, HIV-1 group M subtype B
T1 construct: The 1:1 ration between the p66/p51 subunits was also verified; made in house; host or cells: E. coli M15
Description: (§1) HIV RT-associated RNase H activity was measured as described in 100 μL reaction volume containing 50 mM Tris-HCl buffer pH 7.8, 6 mM MgCl2, 1 mM dithiothreitol (DTT), 80 mM KCl, 0.25 μM hybrid RNA/DNA 5'-GAUCUGAGCCUGGGAGCU-Fluorescin-3' (HPLC, dry, QC: Mass Check) (available from Metabion) 5'-Dabcyl-AGCTCCCAGGCTCAGATC-3'(HPLC, dry, QC: Mass Check), increasing concentrations of inhibitors, whose dilution were made in water, and different amount of enzymes according to a linear range of dose-response curve: 20 ng of WT RT; 60 ng K103N RT; 37.5 ng V106A RT; 75 ng V108A RT; 5 ng Y181C RT; 50 ng Y188A RT; 30 ng Y188L RT; 100 ng E224A RT; 37.5 ng P225A RT; 20 ng P226A RT; 18 ng F227A RT; 30 ng L228A RT; 30 ng W229A RT; 10 ng M230A RT; 30 ng G231A RT; 62.5 ng N474A RT; 1 μg Y501A RT; 100 ng A502F RT; 37.5 ng A508V RT; 38 ng HIV-1 group O RT. The reaction mixture was incubated for 1 h at 37°C, stopped by addition of EDTA and products were measured with a multilabel counter plate reader Victor 3 (Perkin Elmer model 1420–051) equipped with filters for 490/528 nm (excitation/emission wavelength)

[2] = target: T2, HIV-1 RT-associated RNase H activity, A502F RT (Human immunodeficiency virus type 1 group M subtype B, UniProt P04585, A1089F); assay: RNase H activity assay, A502F RT; assay type: biochemical, HIV-1 group M subtype B; settings: for Fold of increase of RNase H IC50 with respect to wt RT: A502F RT
T2 construct: The 1:1 ration between the p66/p51 subunits was also verified; made in house; host or cells: E. coli M15
Description: as §1

[3] = target: T3, HIV-1 RT-associated RNase H activity, wt RT (Human immunodeficiency virus type 1 group M subtype B, UniProt P04585); assay: biochemical; design: species or system HIV-1 group M subtype B
T3 construct: The 1:1 ration between the p66/p51 subunits was also verified; made in house; host or cells: E. coli M15
Description: as §1

[4] = target: HIV-1 RT-associated RNase H activity, HIV-1 group O RT (Human immunodeficiency virus type 1 group O, UniProt Q79666); assay: RNase H activity assay, HIV-1 group O RT; assay type: biochemical; settings: for IC50: Group O RT; for Fold increase in RNase H IC50 in comparison with wild-type HIV-1 group M subtype B RT: HIV-1 group O RT
From the text: Recombinant HIV-1 group O RT was expressed and purified as previously described. It was obtained as a heterodimer composed of subunits of 66 and 51 kDa, with a polyhistidine tag at the C-terminus of p66. For this purpose, the RT p66 subunit encoded within a p66RTB expression vector was co-expressed with the HIV-1 protease in E. coli XL-1 Blue, and the obtained heterodimers were then purified by ionic exchange followed by chromatography on Ni2+-nitriloacetic acid agarose. The enzyme was quantified by active site titration before biochemical studies.
as §1, with “5'-[…]-Fluorescin-3'” for “5'-GAUCUGAGCCUGGGAGCU-Fluorescin-3'”, “5'-Dabcyl-[…]-3'(HPLC,” for “5'-Dabcyl-AGCTCCCAGGCTCAGATC-3'(HPLC,”

[5] = target: T4, HIV-1 RT-associated RNase H activity, P226A RT (Human immunodeficiency virus type 1 group M subtype B, UniProt P04585, P813A); assay: RNase H activity assay, P226A RT; assay type: biochemical, HIV-1 group M subtype B
T4 construct: The 1:1 ration between the p66/p51 subunits was also verified; made in house; host or cells: E. coli M15
Description: as §1

[6] = test system: HIV-1 RT-associated RNase H activity, P226A RT; assay: RNase H activity assay, P226A RT; assay type: biochemical, HIV-1 group M subtype B; settings: P226A RT
Description: as §1

[7] = target: T5, HIV-1 RT-associated RNase H activity, Y188L RT (Human immunodeficiency virus type 1 group M subtype B, UniProt P04585, Y775L); assay: RNase H activity assay, Y188L RT; assay type: biochemical, HIV-1 group M subtype B
T5 construct: The 1:1 ration between the p66/p51 subunits was also verified; made in house; host or cells: E. coli M15
Description: as §1

[8] = target: T6, HIV-1 RT-associated RNase H activity, E224A RT (Human immunodeficiency virus type 1 group M subtype B, UniProt P04585, E811A); assay: RNase H activity assay, E224A RT; assay type: biochemical, HIV-1 group M subtype B; settings: for Fold of increase of RNase H IC50 with respect to wt RT: E224A RT
T6 construct: The 1:1 ration between the p66/p51 subunits was also verified; made in house; host or cells: E. coli M15
Description: as §1

[9] = target: T7, HIV-1 RT-associated RNase H activity, K103N RT (Human immunodeficiency virus type 1 group M subtype B, UniProt P04585, K690N); assay: RNase H activity assay, K103N RT; assay type: biochemical, HIV-1 group M subtype B
T7 construct: The 1:1 ration between the p66/p51 subunits was also verified; made in house; host or cells: E. coli M15
Description: as §1

[10] = target: T8, HIV-1 RT-associated RNase H activity, F227A RT (Human immunodeficiency virus type 1 group M subtype B, UniProt P04585, F814A); assay: RNase H activity assay, F227A RT; assay type: biochemical, HIV-1 group M subtype B
T8 construct: The 1:1 ration between the p66/p51 subunits was also verified; made in house; host or cells: E. coli M15
Description: as §1

[11] = test system: HIV-1 RT-associated RNase H activity, F227A RT; assay: RNase H activity assay, F227A RT; assay type: biochemical, HIV-1 group M subtype B; settings: F227A RT
Description: as §1

[12] = target: T9, HIV-1 RT-associated RNase H activity, V106A RT (Human immunodeficiency virus type 1 group M subtype B, UniProt P04585, V693A); assay: RNase H activity assay, V106A RT; assay type: biochemical, HIV-1 group M subtype B
T9 construct: The 1:1 ration between the p66/p51 subunits was also verified; made in house; host or cells: E. coli M15
Description: as §1

N#Cc1ccc(-c2csc(NN=C3C(=O)Nc4ccccc43)n2)cc1 [RMNC6, (Z)-4-(2-(2-(2-oxoindolin-3-ylidene)hydrazinyl)thiazol-4-yl)benzonitrile]
IC50 [1]: 2100 ± 600 nM
IC50 [2]: 13000 ± 700 nM
Fold of increase of RNase H IC50 with respect to wt RT [2]: 10.0
IC50 [3]: 1300 ± 300 nM
IC50 [4]: 8500 ± 2600 nM
Fold increase in RNase H IC50 in comparison with wild-type HIV-1 group M subtype B RT [4]: 6.5 and 5 to 6.5
IC50 [5]: 1900 ± 100 nM
Fold of increase of RNase H IC50 with respect to wt RT [6]: 1.5
IC50 [7]: 1600 ± 500 nM
IC50 [8]: 7900 ± 1100 nM
Fold of increase of RNase H IC50 with respect to wt RT [8]: 6 and 6.1
IC50 [9]: 2300 ± 100 nM
IC50 [10]: 700 ± 100 nM
Fold of increase of RNase H IC50 with respect to wt RT [11]: 0.5
IC50 [12]: 5300 ± 600 nM

CC(C)c1ccc(O)c(=O)c(O)c1 [BTP, β-thujaplicinol, reference compound]
IC50 ([1]; Y181C RT, read-out: IC50 RNase H): 230 ± 50 nM
IC50 [2]: 170 ± 30 nM
Fold of increase of RNase H IC50 with respect to wt RT [2]: 0.9
IC50 [3]: 190 ± 30 nM
IC50 [4]: 910 ± 10 nM
Fold increase in RNase H IC50 in comparison with wild-type HIV-1 group M subtype B RT [4]: 5 to 6.5
IC50 [5]: 290 ± 80 nM
Fold of increase of RNase H IC50 with respect to wt RT [6]: 1.5
IC50 ([7]; Y188L RT, read-out: IC50 RNase H): 80 ± 50 nM
IC50 [8]: 150 ± 30 nM
Fold of increase of RNase H IC50 with respect to wt RT [8]: 0.8
IC50 ([9]; K103N RT, read-out: IC50 RNase H): 220 ± 80 nM
IC50 [10]: 220 ± 40 nM
Fold of increase of RNase H IC50 with respect to wt RT [11]: 1.2
IC50 [12]: 160 ± 30 nM
